Two compounds from US8937183B2, “Detection of hydrogen peroxide” (Promega Corporation, priority 2011, dated 2015) can be followed below.

A short description of assay [1]: Light generation from compounds following incubation with hydrogen peroxide in different pH solutions (D-cysteine conversion, LDR). Particulars: for Signal to Background Ratios: signal with peroxide to background no peroxide. The format is biochemical. Here is the method: In this experiment, various compounds were tested for their ability to detect hydrogen peroxide in different pH solutions. Several compounds are shown to give much better signal strength and signal to background ratios than PBI 3048 (Example 23). 4 mg/ml solutions of compounds PBI 4480, 4481, 4452, 4470, 4472, 3048 (FIGS. 1 and 2) were made by dissolving them in DMSO (Fluka 41641). 30 μl of the compound solutions was diluted to 1.5 ml with Nanopure water, and 50 μl aliquots added as follows into a white, 96-well luminometer plate: PBI 4481, row A1-12; PBI 4480, row B1-12; PBI 4452, row C1-12; PBI 3048, row D1-12; PBI 4472, row E1-12 and PBI 4470, row F1-12.
25 μl of 200 mM TRIS buffer, pH 7.6 was added to wells A1-F4, 25 μl of 200 mM TRIS buffer, pH 8.8 was added to wells A5-F8, and 25 μl of 200 mM Tris buffer, pH 10.4 was added […].
30% hydrogen peroxide (Sigma H 1009-5 ml) was diluted to 40 μM in Nanopure water, and 25 μl added to columns 3, 4, 7, 8, 11 and 12 of the plate. 25 μl water was added to columns 1, 2, 5, 6, 9, and 10 of the plate, and the plate incubated at room temperature for 60 minutes.
A conversion solution was made by mixing 100 μl of 100 mM D-cysteine, 1 ml Tris Buffer pH 8.8 and 8.9 ml nanopure water. After mixing, 80 μl of the solution was added to wells A1-F12 of a new luminometer plate.
After incubation, 20 μl of sample from wells A1-F12 of the first plate was transferred to the same well in the new luminometer plate. The new plate was incubated at room temperature for 5 minutes, 100 μl of LDR (Example 23) was added to wells A1-F12, and bioluminescence detected on a Glo Max® luminometer (Promega).
The RLUs for the duplicate wells were averaged. The averages for the wells containing hydrogen peroxide were compared to the wells without hydrogen peroxide at the same pH (Table 2). BZT is used to designate benzothiazole derivatives of the compounds.
The Signal to Background (S/B) ratio is used to compare assay reagents with very difference signal strengths. An assay with a higher S/B ratio is often considered a better assay than one with a smaller S/B ratio (with all other factors being relatively equal).

Assay [2] in a line: Signal strength differences due to reaction pH and buffer composition (hydrogen peroxide, D-cysteine conversion, LDR). The format is biochemical. The following applies: for Net Average Signals at 15 Minutes / Net Average Signals at 60 Minutes / Net Average Signals at 105 Minutes: 100 μl of 10 μM H2O2 added. As for the experimental part:
A 30 μl sample of 4 mg/ml PBI 4458 in DMSO was diluted to 1.5 ml with Nanopure water, and 50 μl added to wells A1-12 and E1-12 of a microtiter plate. A 30 μl sample of 4 mg/ml PBI 4472 in DMSO was diluted to 1.5 ml with Nanopure, and 50 μl added to wells B1-12 and F1-12 of the plate. A 30 μl sample of 4 mg/ml PBI 4480 in DMSO was diluted to 1.5 ml with Nanopure water, and 50 μl added to wells C1-12 and G1-12 of the plate. A 30 μl sample of 4 mg/ml PBI 4481 in DMSO was diluted to 1.5 ml with Nanopure water, and 50 μl added to wells D1-12 and H1-12 of the plate. To the plate, a 50 μl sample of 200 mM KHPO4, pH 7.4 was added to wells A1-D4; 50 μl 200 mM Tris buffer, pH 7.4 was added to wells A5-D8; 50 μl 250 mM HEPES buffer, pH 7.5 was added to wells A9-D12; 50 μl 200 mM KHPO4 buffer, pH 9.2 was added to wells E1-H4; 50 μl 250 mM Tris buffer, pH 10.4 was added to wells E5-H8; and 50 μl 100 mM CAPS buffer, pH 10.4 was added to wells E9-H12.
A sample of hydrogen peroxide (30%, Sigma, H1009-5 ml) was diluted to 10 μM with Nanopure water, and 100 μl added to columns 3, 4, 7, 8, 11, 12 wells A-H of the plate. 100 μl Nanopure water was added to columns 1, 2, 5, 6, 9 and 10 of the plate. The plate was incubated at room temperature for 15 minutes.
A conversion solution was made by mixing 5 ml of 1 M HEPES buffer, pH 7.5, 4.9 ml of Nanopure water and 100 μl of 100 mM D-cysteine (in Nanopure water), and […] added to all wells of a luminometer plate.
After incubation, 25 μl of sample from all wells in the plate was transferred and mixed into the corresponding wells in the luminometer plate, incubated 2-3 minutes at room temperature, and 50 μl LDR (Example 23) added. The luminometer plate was incubated for 15 minutes at room temperature, and bioluminescence detected on a GloMax® luminometer.
Additional samples were taken at 60 and 105 minutes and added to a fresh luminometer plates containing 25 μl of conversion solution in all wells. The plates were then incubated for 15 minutes at room temperature, and bioluminescence detected as previously described.

As to `O=C(O)C1CSC(c2nc3ccc(OCc4ccc(B(O)O)cc4)cc3s2)=N1` (stereo not drawn) [PBI 3048], the “Signal to Background Ratios” value in assay [1] (pH 7.6) is 3.0; in assay [1] (pH 8.8) it was 4.5; in assay [1] (pH 10.4), 6.7. Also, the “averaged RLUs (bioluminescence)” value is 569,141 RLU in assay [1] (pH 7.6 TRIS buffer, No H2O2, 60 minutes); 1,726,143 RLU in assay [1] (pH 7.6 TRIS buffer, With H2O2 (25 μl of 40 μM added), 60 minutes); 558,869 RLU in assay [1] (pH 8.8 TRIS buffer, No H2O2, 60 minutes); 2,499,869 RLU in assay [1] (pH 8.8 TRIS buffer, With H2O2 (25 μl of 40 μM added), 60 minutes); 558,333 RLU in assay [1] (pH 10.4 Tris buffer, No H2O2, 60 minutes); 3,768,437 RLU in assay [1] (pH 10.4 Tris buffer, With H2O2 (25 μl of 40 μM added), 60 minutes).
In the case of `CC1(C)OB(/C=C/COc2ccc3nc(C#N)sc3c2)OC1(C)C` [PBI 4458, (E)-6-((3-(4,4,5,5-tetramethyl-1,3,2-dioxaborolan-2-yl)allyl)oxy)-benzo[d]thiazole-2-carbonitrile], the “Signal to Background Ratios at 15 Minutes” value in assay [2] (CAPS pH 10.4, 15 minutes) is listed as 13.2; in assay [2] (HEPES pH 7.5, 15 minutes), 2.0; in assay [2] (KPO4 pH 7.4, 15 minutes) it was 2.2; in assay [2] (KPO4 pH 9.2, 15 minutes) it was 6.4; in assay [2] (TRIS pH 10.4, 15 minutes), 15.2; in assay [2] (Tris pH 7.4, 15 minutes), 2.2. Further, the “Net Average Signals at 15 Minutes” value was 4,577,774 RLU in assay [2] (CAPS pH 10.4, 15 minutes); 117,752 RLU in assay [2] (HEPES pH 7.5, 15 minutes); 148,190 RLU in assay [2] (KPO4 Ph 7.4, 15 minutes); 937,111 RLU in assay [2] (KPO4 pH 9.2, 15 minutes); 2,348,900 RLU in assay [2] (TRIS pH 10.4, 15 minutes); 150,205 RLU in assay [2] (Tris pH 7.4, 15 minutes). Further, the “Signal to Background Ratios at 60 Minutes” value came out at 12.1 in assay [2] (CAPS pH 10.4, 60 minutes); 4.5 in assay [2] (HEPES pH 7.5, 60 minutes); 4.5 in assay [2] (KPO4 pH 7.4, 60 minutes); 9.5 in assay [2] (KPO4 pH 9.2, 60 minutes); 19.4 in assay [2] (TRIS pH 10.4, 60 minutes); 4.6 in assay [2] (Tris pH 7.4, 60 minutes). The “Net Average Signals at 60 Minutes” value in assay [2] (CAPS pH 10.4, 60 minutes) is listed as 5,831,485 RLU; in assay [2] (HEPES pH 7.5, 60 minutes) it was 494,958 RLU; in assay [2] (KPO4 pH 7.4, 60 minutes), 615,057 RLU; in assay [2] (KPO4 pH 9.2, 60 minutes), 2,490,775 RLU; in assay [2] (TRIS pH 10.4, 60 minutes), 3,795,644 RLU; in assay [2] (Tris pH 7.4, 60 minutes), 626,927 RLU. Also, the “Signal to Background Ratios at 105 Minutes” value was determined as 9.6 in assay [2] (CAPS pH 10.4, 105 minutes); 5.7 in assay [2] (HEPES pH 7.5, 105 minutes); 5.4 in assay [2] (KPO4 pH 7.4, 105 minutes); 9.1 in assay [2] (KPO4 pH 9.2, 105 minutes); 15.7 in assay [2] (TRIS pH 10.4, 105 minutes); 6.0 in assay [2] (Tris pH 7.4, 105 minutes). Further, the “Net Average Signals at 105 Minutes” value in assay [2] (CAPS pH 10.4, 105 minutes) was 8,063,108 RLU; in assay [2] (HEPES pH 7.5, 105 minutes), 1,033,511 RLU; in assay [2] (KPO4 pH 7.4, 105 minutes) it was 1,297,857 RLU; in assay [2] (KPO4 pH 9.2, 105 minutes) it was 4,925,484 RLU; in assay [2] (TRIS pH 10.4, 105 minutes), 5,482,012 RLU; in assay [2] (Tris pH 7.4, 105 minutes) it was 1,274,061 RLU.
